Assay results from patent publication US20240343704A1, “HALO-SUBSTITUTED AMINO PYRIDINE COMPOUNDS AS INHIBITORS OF THE HAEMATOPOIETIC PROGENITOR KINASE 1 (HPK1)” (priority 2021, published 2024).

Assays:
[1] = biological target: T1, Recombinant (1-346) HPK1 (h) (Homo sapiens, UniProt Q92918); test: HPK1 Human STE Kinase Enzymatic Radiometric Assay; assay type: biochemical; details: read-out: HPK1 IC50 nM Range*
T1 construct: Recombinant (1-346) HPK1 (h) is incubated with 8 mM MOPS pH 7.0
T1 sequence (Q92918 1-346): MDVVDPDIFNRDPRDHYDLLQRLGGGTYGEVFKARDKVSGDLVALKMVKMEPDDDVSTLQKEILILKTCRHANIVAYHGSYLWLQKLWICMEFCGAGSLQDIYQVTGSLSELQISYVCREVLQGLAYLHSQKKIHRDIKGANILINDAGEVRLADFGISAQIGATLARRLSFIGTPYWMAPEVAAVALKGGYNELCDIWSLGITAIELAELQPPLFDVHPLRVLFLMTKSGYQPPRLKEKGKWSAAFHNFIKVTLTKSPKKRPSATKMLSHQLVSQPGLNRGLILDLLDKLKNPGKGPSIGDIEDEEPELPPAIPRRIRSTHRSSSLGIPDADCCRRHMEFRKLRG
Experimental: A stock solution of 10 mM of test compound is prepared in DMSO. The compound plate was prepared by 3-fold and 9-point serial dilutions. […] The reaction is initiated by The addition of the Mg/ATP mix. After incubation for 40 minutes at RT, the reaction is stopped by the addition of phosphoric acid to a concentration of 0.5%.

[2] = biological target: Lck (h) (Homo sapiens, UniProt P06239); test: Lck Human  Kinase Enzymatic Radiometric Assay; assay type: biochemical; details: read-out: Lck IC50 nM Range*
Chain of Lck (h) (P06239 whole entry): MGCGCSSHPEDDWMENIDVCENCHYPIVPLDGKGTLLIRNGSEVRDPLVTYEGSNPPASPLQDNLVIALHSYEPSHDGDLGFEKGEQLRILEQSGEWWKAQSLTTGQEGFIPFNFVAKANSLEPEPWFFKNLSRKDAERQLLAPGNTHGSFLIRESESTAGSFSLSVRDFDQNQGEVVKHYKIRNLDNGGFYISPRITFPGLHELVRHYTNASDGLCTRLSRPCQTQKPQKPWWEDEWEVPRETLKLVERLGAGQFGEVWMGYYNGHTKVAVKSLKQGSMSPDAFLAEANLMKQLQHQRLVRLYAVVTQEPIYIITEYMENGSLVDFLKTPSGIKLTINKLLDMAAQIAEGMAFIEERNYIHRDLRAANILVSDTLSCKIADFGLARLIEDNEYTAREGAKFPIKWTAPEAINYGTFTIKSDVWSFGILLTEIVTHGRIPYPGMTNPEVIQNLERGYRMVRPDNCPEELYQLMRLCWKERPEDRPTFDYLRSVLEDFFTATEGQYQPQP
In short: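 Substrate 33P-incorporation measured by scintillation counting after spotting on P30 filtermat and phosphoric acid washes. Human Lck reacted 40 min at RT in 50 mM Tris pH 7.5 with 10 mM MgAcetate, [gamma-33P]-ATP, 250 uM Cdc2 peptide, 0.1 mM EGTA and 0.1 mM Na3VO4.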

Compound | IC50 [1] [nM] | IC50 [2] [nM]
Nc1nc(F)c(-c2ccc(C3CCCCN3CC(F)(F)F)cc2)cc1-c1ccc2c(c1)CCNC2=O (stereo not drawn) [I-93, 6-(2-amino-6-fluoro-5-(4-(1-(2,2,2-trifluoroethyl)piperidin-2-yl)phenyl)pyridin-3-yl)-3,4-dihydroisoquinolin-1(2H)-one] | 11 to 100 | > 1000
Nc1nc(F)c(-c2ccc(S(=O)(=O)N3CCOCC3)cc2)cc1-c1ccc2c(c1)CCNC2=O [I-98, 6-(2-amino-6-fluoro-5-(4-(morpholinosulfonyl)phenyl)pyridin-3-yl)-3,4-dihydroisoquinolin-1(2H)-one] | 11 to 100 | > 1000
Nc1nc(F)c(-c2ccc(S(=O)(=O)N3CCCC3)cc2)cc1-c1ccc2c(c1)CCNC2=O [I-99, 6-(2-amino-6-fluoro-5-(4-(pyrrolidin-1-ylsulfonyl)phenyl)pyridin-3-yl)-3,4-dihydroisoquinolin-1(2H)-one] | 11 to 100 | > 1000
Nc1nc(F)c(-c2ccc(C3CCCCN3CC(F)F)cc2)cc1-c1ccc2c(c1)CCNC2=O (stereo not drawn) [I-101, 6-(2-amino-5-(4-(1-(2,2-difluoroethyl)piperidin-2-yl)phenyl)-6-fluoropyridin-3-yl)-3,4-dihydroisoquinolin-1(2H)-one] | 11 to 100 | > 1000
CCN1CCOC(c2ccc(-c3cc(-c4ccc5c(c4)CCNC5=O)c(N)nc3F)cc2)C1 (stereo not drawn) [I-102, 6-(2-amino-5-(4-(4-ethylmorpholin-2-yl)phenyl)-6-fluoropyridin-3-yl)-3,4-dihydroisoquinolin-1(2H)-one] | 11 to 100 | > 1000
Nc1nc(F)c(-c2ccc(C3CN(CC(F)F)CCO3)cc2)cc1-c1ccc2c(c1)CCNC2=O (stereo not drawn) [I-103, 6-(2-amino-5-(4-(4-(2,2-difluoroethyl)morpholin-2-yl)phenyl)-6-fluoropyridin-3-yl)-3,4-dihydroisoquinolin-1(2H)-one] | 11 to 100 | > 1000
C[C@@H]1COCCN1c1ccc(-c2cc(-c3ccc4c(c3)CCNC4=O)c(N)nc2F)c(F)c1 [I-108, (R)-6-(2-amino-6-fluoro-5-(2-fluoro-4-(3-methylmorpholino)phenyl)pyridin-3-yl)-3,4-dihydroisoquinolin-1(2H)-one] | 11 to 100 | > 1000
Nc1nc(F)c(-c2ccc(C3=CCNC3)cc2)cc1-c1ccc2c(c1)CCNC2=O [I-109, 6-(2-amino-5-(4-(2,5-dihydro-1H-pyrrol-3-yl)phenyl)-6-fluoropyridin-3-yl)-3,4-dihydroisoquinolin-1(2H)-one 2,2,2-trifluoroacetate] | 0.1 to 10 | > 1000
CC(C)N1C[C@H]2C[C@@]2(c2ccc(-c3cc(-c4ccc5c(c4)CCNC5=O)c(N)nc3F)cc2)C1 [I-110, 6-(2-amino-6-fluoro-5-(4-((1R,5S)-3-isopropyl-3-azabicyclo[3.1.0]hexan-1-yl)phenyl)pyridin-3-yl)-3,4-dihydroisoquinolin-1(2H)-one] | 0.1 to 10 | > 1000
CC(C)N1C[C@@H]2C[C@]2(c2ccc(-c3cc(-c4ccc5c(c4)CCNC5=O)c(N)nc3F)cc2)C1 [I-111, 6-(2-amino-6-fluoro-5-(4-((1S,5R)-3-isopropyl-3-azabicyclo[3.1.0]hexan-1-yl)phenyl)pyridin-3-yl)-3,4-dihydroisoquinolin-1(2H)-one 2,2,2-trifluoroacetate] | 0.1 to 10 | > 1000
Nc1nc(F)c(-c2ccc(N3CC[C@@H](F)C3)cc2)cc1-c1ccc2c(c1)CCNC2=O [I-112, (R)-6-(2-amino-6-fluoro-5-(4-(3-fluoropyrrolidin-1-yl)phenyl)pyridin-3-yl)-3,4-dihydroisoquinolin-1(2H)-one] | 11 to 100 | > 1000
Nc1nc(F)c(-c2ccc(N3CC[C@H](F)C3)cc2)cc1-c1ccc2c(c1)CCNC2=O [I-113, (S)-6-(2-amino-6-fluoro-5-(4-(3-fluoropyrrolidin-1-yl)phenyl)pyridin-3-yl)-3,4-dihydroisoquinolin-1(2H)-one] | 11 to 100 | > 1000
CO[C@@H]1CCN(c2ccc(-c3cc(-c4ccc5c(c4)CCNC5=O)c(N)nc3F)cc2)C1 [I-114, (R)-6-(2-amino-6-fluoro-5-(4-(3-methoxypyrrolidin-1-yl)phenyl)pyridin-3-yl)-3,4-dihydroisoquinolin-1(2H)-one] | 11 to 100 | > 1000
CO[C@H]1CCN(c2ccc(-c3cc(-c4ccc5c(c4)CCNC5=O)c(N)nc3F)cc2)C1 [I-115, (S)-6-(2-amino-6-fluoro-5-(4-(3-methoxypyrrolidin-1-yl)phenyl)pyridin-3-yl)-3,4-dihydroisoquinolin-1(2H)-one] | 0.1 to 10 | > 1000
CS(=O)(=O)[C@@H]1CCN(c2ccc(-c3cc(-c4ccc5c(c4)CCNC5=O)c(N)nc3F)cc2)C1 [I-116, (R)-6-(2-amino-6-fluoro-5-(4-(3-(methylsulfonyl)pyrrolidin-1-yl)phenyl)pyridin-3-yl)-3,4-dihydroisoquinolin-1(2H)-one] | 0.1 to 10 | > 1000
CS(=O)(=O)[C@H]1CCN(c2ccc(-c3cc(-c4ccc5c(c4)CCNC5=O)c(N)nc3F)cc2)C1 [I-117, (S)-6-(2-amino-6-fluoro-5-(4-(3-(methylsulfonyl)pyrrolidin-1-yl)phenyl)pyridin-3-yl)-3,4-dihydroisoquinolin-1(2H)-one] | 0.1 to 10 | > 1000
CN1C=NN(c2ccc(-c3cc(-c4ccc5c(c4)CCNC5=O)c(N)nc3F)cc2)CC1 [I-118, 6-(2-amino-6-fluoro-5-(4-(4-methyl-5,6-dihydro-1,2,4-triazin-1(4H)-yl)phenyl)pyridin-3-yl)-3,4-dihydroisoquinolin-1(2H)-one] | 0.1 to 10 | > 1000
Nc1nc(F)c(-c2ccc(C3CCN(CCO)CC3)cc2)cc1-c1ccc2c(c1)CCNC2=O [I-119, 6-(2-amino-6-fluoro-5-(4-(1-(2-hydroxyethyl)piperidin-4-yl)phenyl)pyridin-3-yl)-3,4-dihydroisoquinolin-1(2H)-one] | 0.1 to 10 | > 1000

Results, then the molecule that gave them:

IC50 [1] [nM] | IC50 [2] [nM] | Compound
0.1 to 10 | > 1000 | Nc1nc(F)c(-c2ccc(O[C@H]3CCCNC3)cc2)cc1-c1ccc2c(c1)CCNC2=O [I-94, (S)-6-(2-amino-6-fluoro-5-(4-(piperidin-3-yloxy)phenyl)pyridin-3-yl)-3,4-dihydroisoquinolin-1(2H)-one]
0.1 to 10 | > 1000 | CC(C)N1CCN(c2ccc(-c3cc(-c4cc5c(cc4F)C(=O)NCC5)c(N)nc3F)cc2)CC1 [I-95, 6-(2-amino-6-fluoro-5-(4-(4-isopropylpiperazin-1-yl)phenyl)pyridin-3-yl)-7-fluoro-3,4-dihydroisoquinolin-1(2H)-one]
0.1 to 10 | > 1000 | C[C@@H]1CN(c2ccc(-c3cc(-c4ccc5c(c4)CCNC5=O)c(N)nc3F)cc2)C[C@H](C)N1C [I-96, 6-(2-amino-6-fluoro-5-(4-((3R,5S)-3,4,5-trimethylpiperazin-1-yl)phenyl)pyridin-3-yl)-3,4-dihydroisoquinolin-1(2H)-one]
0.1 to 10 | > 1000 | C[C@H]1CN(c2ccc(-c3cc(-c4ccc5c(c4)CCNC5=O)c(N)nc3F)cc2)C[C@H](C)N1C [I-97, 6-(2-amino-6-fluoro-5-(4-((3S,5S)-3,4,5-trimethylpiperazin-1-yl)phenyl)pyridin-3-yl)-3,4-dihydroisoquinolin-1(2H)-one]
0.1 to 10 | > 1000 | CCN1CCCCC1c1ccc(-c2cc(-c3ccc4c(c3)CCNC4=O)c(N)nc2F)cc1 (stereo not drawn) [I-100, 6-(2-amino-5-(4-(1-ethylpiperidin-2-yl)phenyl)-6-fluoropyridin-3-yl)-3,4-dihydroisoquinolin-1(2H)-one]
0.1 to 10 | > 1000 | CC(C)N1CCCCC1c1ccc(-c2cc(-c3ccc4c(c3)CCNC4=O)c(N)nc2F)cc1 (stereo not drawn) [I-104, 6-(2-amino-6-fluoro-5-(4-(1-isopropylpiperidin-2-yl)phenyl)pyridin-3-yl)-3,4-dihydroisoquinolin-1(2H)-one]
0.1 to 10 | > 1000 | CC(C)N1CCOC(c2ccc(-c3cc(-c4ccc5c(c4)CCNC5=O)c(N)nc3F)cc2)C1 (stereo not drawn) [I-105, 6-(2-amino-6-fluoro-5-(4-(4-isopropylmorpholin-2-yl)phenyl)pyridin-3-yl)-3,4-dihydroisoquinolin-1(2H)-one]
0.1 to 10 | > 1000 | CN1C[C@@H]2C[C@]2(c2ccc(-c3cc(-c4ccc5c(c4)CCNC5=O)c(N)nc3F)cc2)C1 [I-106, 6-(2-amino-6-fluoro-5-(4-((1S,5R)-3-methyl-3-azabicyclo[3.1.0]hexan-1-yl)phenyl)pyridin-3-yl)-3,4-dihydroisoquinolin-1(2H)-one]
0.1 to 10 | > 1000 | COCCN1CCC(c2ccc(-c3cc(-c4ccc5c(c4)CCNC5=O)c(N)nc3F)cc2)CC1 [I-107, 6-(2-amino-6-fluoro-5-(4-(1-(2-methoxyethyl)piperidin-4-yl)phenyl)pyridin-3-yl)-3,4-dihydroisoquinolin-1(2H)-one]
